Source: ChEMBL document CHEMBL1128955, “Benzolactam growth hormone secretagogues: Replacement of the C-3 amide bond in L-692,429” (1996)
Activity calls are given as the source filed them. The rule behind the calls is not given here.

What was measured:
Rattus norvegicus [1] = species on record: Rattus norvegicus; test: In vitro growth hormone release in rat pituitary cells at 1 uM; Weakly active; type: functional, cell-based; settings: Pituitary gland cell
Rattus norvegicus [2] = species on record: Rattus norvegicus; test: In vitro growth hormone release in rat pituitary cells; type: functional; settings: Pituitary gland cell, read-out: ED50 (the source's name)
Rattus norvegicus [3] = species on record: Rattus norvegicus; test: In vitro growth hormone release in rat pituitary cells at 10 uM; inactive; type: functional, cell-based; settings: Pituitary gland cell

SMILES	EC50 (Rattus norvegicus [2]) [nM]	further results
CC(C)(N)NC(=O)N[C@@H]1CCc2ccccc2N(Cc2ccc(-c3ccccc3-c3nn[nH]n3)cc2)C1=O		Growth hormone release at 1 uM (qualitative) (Rattus norvegicus [1]): Weak activity
CC(C)(N)CCSC1CCc2ccccc2N(Cc2ccc(-c3ccccc3-c3nn[nH]n3)cc2)C1=O (configuration not stated)	6000	
CC(C)(N)CCC(=O)N[C@@H]1CCc2ccccc2N(Cc2ccc(-c3ccccc3-c3nn[nH]n3)cc2)C1=O	3000	
C[C@@H](O)CNC(C)(C)CC(=O)N[C@@H]1CCc2ccccc2N(Cc2ccc(-c3ccccc3-c3nn[nH]n3)cc2)C1=O [L-692585]	3	
C[C@H](O)CNC(C)(C)CNC(=O)N[C@@H]1CCc2ccccc2N(Cc2ccc(-c3ccccc3-c3nn[nH]n3)cc2)C1=O	2500	
CN(C(=O)CC(C)(C)N)[C@@H]1CCc2ccccc2N(Cc2ccc(-c3ccccc3-c3nn[nH]n3)cc2)C1=O	7000	
CC(C)(N)CC(=O)OC1CCc2ccccc2N(Cc2ccc(-c3ccccc3-c3nn[nH]n3)cc2)C1=O (configuration not stated)		Growth hormone release at 1 uM (qualitative) (Rattus norvegicus [1]): Weak activity
C[C@@H](O)CNC(C)(C)CNC(=O)N[C@@H]1CCc2ccccc2N(Cc2ccc(-c3ccccc3-c3nn[nH]n3)cc2)C1=O		Growth hormone release at 1 uM (qualitative) (Rattus norvegicus [1]): Weak activity
C[C@H](O)CNC(C)(C)CC(=O)N[C@@H]1CCc2ccccc2N(Cc2ccc(-c3ccccc3-c3nn[nH]n3)cc2)C1=O	7	
CC(C)(N)CNC1CCc2ccccc2N(Cc2ccc(-c3ccccc3-c3nn[nH]n3)cc2)C1=O (configuration not stated)	1000	
CC(C)(N)CC(=O)N(Cc1ccccc1)[C@@H]1CCc2ccccc2N(Cc2ccc(-c3ccccc3-c3nn[nH]n3)cc2)C1=O		ED50 (Rattus norvegicus [3]): inactive
CC(C)(N)CCNC1CCc2ccccc2N(Cc2ccc(-c3ccccc3-c3nn[nH]n3)cc2)C1=O (configuration not stated)		Growth hormone release at 1 uM (qualitative) (Rattus norvegicus [1]): Weak activity
CC(C)(N)CC(=O)N[C@@H]1CCc2ccccc2N(Cc2ccc(-c3ccccc3-c3nn[nH]n3)cc2)C1=O	60	
CC(C)(N)C(=O)N[C@@H]1CCc2ccccc2N(Cc2ccc(-c3ccccc3-c3nn[nH]n3)cc2)C1=O	30	
CC(C)(N)CCCSC1CCc2ccccc2N(Cc2ccc(-c3ccccc3-c3nn[nH]n3)cc2)C1=O (configuration not stated)	7000	
CC(C)(N)CNC(=O)N[C@@H]1CCc2ccccc2N(Cc2ccc(-c3ccccc3-c3nn[nH]n3)cc2)C1=O	100	
CC(C)(N)CC(=O)NC1CCc2ccccc2N(Cc2ccc(-c3ccccc3-c3nn[nH]n3)cc2)C1=O [L-158432]	120	
